Experiment [1] deals with T1, Trypsin-3 (Homo sapiens, UniProt P35030).
T1 sequence (P35030 1-304): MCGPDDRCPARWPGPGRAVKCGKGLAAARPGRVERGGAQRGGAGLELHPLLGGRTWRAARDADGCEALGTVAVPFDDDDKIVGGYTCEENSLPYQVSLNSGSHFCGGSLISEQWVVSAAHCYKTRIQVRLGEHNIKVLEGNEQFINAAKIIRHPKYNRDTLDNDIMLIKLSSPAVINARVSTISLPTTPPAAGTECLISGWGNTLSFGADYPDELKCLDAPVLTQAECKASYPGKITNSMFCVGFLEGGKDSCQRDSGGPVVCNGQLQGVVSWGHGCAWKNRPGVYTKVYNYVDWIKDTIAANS
Nature of the experiment: Kinetic progress curves (kapp, K1, KI*, mechanism). The note with it: for Trypsin-3 kapp: apparent second-order rate constant from progress curves; for Trypsin-3 kapp / Ki: mean ± SD; for Trypsin-3 mechanism of inhibition: defined by the progress curves: slow-binding (Rev.) or irreversible (Irrev.). On the set-up: purchased R&D. The class given is biochemical. On the procedure:
Because the compounds described in this paper were previously described as irreversible inhibitors, the IC50 value is inversely correlated with the second-order rate constant of inactivation. For a simple pseudo-first-order inactivation process, the activity after incubation with inhibitor (vi) varies with the inhibitor concentration (i), as described in the following equation: vi=v0·e^−kit where v0 is the activity in the absence of an inhibitor, k is the second-order rate constant of inactivation, and t is the time. The inactivation rate constant was determined from the time course of inhibition.
Kinetic assays were performed in the following manner. The inhibitor was mixed with the substrate, and the buffer solution with the enzyme was added at the time zero. The progress curves show the release of pNA or AMC as a function of time. Initially, no inhibitor is bound to the enzyme, and the tangent to the progress curve (dA/dt) is proportional to the free enzyme concentration. The free enzyme concentration decreases over time due to inhibitor binding kinetics, as described above. Progress curves were recorded in pseudo-first-order conditions ([I]0>>[E]0) and with less than 10% conversion of the substrate during the entire time course. In these conditions, dA/dt decreases exponentially with time. The progress curves were fitted with the integrated rate equation with GraFit7 to yield a value for kobs, a pseudo-first-order rate constant. At=Ao+vs∙t+vi−vs∙1−e^−kobs∙t/kobs where At is the absorbance at time t, A0 is the absorbance at time zero, vi is the initial rate and vs is the velocity at the steady-state.
The apparent second-order rate constant (kapp) was calculated from the slope of the linear part of the plot of kobs vs. the inhibitor concentration ([I]0). In the case of competition between the inhibitor and the substrate, kapp is smaller than the “real” second-order rate constant k discussed above because a certain fraction of the enzyme is present as an enzyme-substrate complex. kapp depends on the substrate concentration used in the experiment, as described by [Lambeir et al. (1996)].
The apparent equilibrium constants were obtained from the following equations, vi/vo=1/1+I/K1; vS/vo=1/1+I/KI* where vi is the initial rate, vs is the steady-state velocity and vo is the uninhibited initial rate.

Experiment [2] has as its target T1, Trypsin-3. Nature of the experiment: Jump dilution, determination of inhibition type. The note with it: inhibitor at 10 times IC50, 15 min, diluted 10-fold or 100-fold; Rev./Irrev. On the set-up: purchased R&D. Format: biochemical. As to the method:
The dissociation of the enzyme-inhibitor complex was monitored by substrate hydrolysis over time ([Joossens et al., 2006]).
Because ABPs are designed to be irreversible serine protease inhibitors, the IC50 is exclusively used as a first discriminatory evaluation. When an inhibitor is irreversible, its IC50 value not only depends on the substrate and enzyme concentration but also on the time of incubation with the enzyme before the reaction is started by adding the substrate. […] The progress curve in the presence of an irreversible inhibitor will show final velocities equal to zero (Figure 6C). In contrast, for a reversible inhibitor, progress curves have a non-zero final steady-state velocity (Figure 6A) ([McWhirter, 2021]). To corroborate the inhibitory mechanism of the compounds, jump-dilution assays were performed. These use an inhibitor concentration of 10-fold the IC50 for the incubation, and a posteriori, the reaction mixture is diluted 10-fold or 100-fold before adding the substrate. In the case of an irreversible inhibitor, enzymatic activity is not regained (Figure 6D), whereas, in the case of a reversible compound, a slow release of the inhibitor and a gradual increase of the enzymatic activity rate is observed (Figure 6B) ([Copeland, 2013]; [McWhirter, 2021]). The jump-dilution assays confirmed the behavior described by the progress curves.
2.2.2 Jump dilution results
Supplementary Table 2. Jump dilution of selected alkyne and desthiobiotin probes against a panel of trypsin-like serine proteases. […]
# R R DtBa 3 tryptase Thrombin uPA CatG
32b H Alk Irrev. Irrev. Rev. Irrev. Rev.
45b DtB Irrev. Irrev. Rev. N.D. N.D.
33b Alk Irrev. Irrev. Rev. Irrev. Rev.
46b Cl DtB Irrev. Irrev. Rev. N.D. N.D.
34b H Alk Rev. Rev. Rev. Irrev. Rev.
50b DtB Rev. Rev. Rev. Irrev. Rev.
35b Alk Rev. Rev. Rev. Irrev. Rev.
52b NHCOMe DtB Rev. Rev. Rev. Irrev. Rev.
36b Alk Rev. Rev. Rev. Irrev. Rev.
54b Cl DtB Rev. Rev. Rev. Irrev. Rev.
37b Alk Irrev. Irrev. N.D. Irrev. Irrev.
55b H DtB Irrev. Irrev. N.D. Irrev. Irrev.
38b Alk Irrev. Irrev. N.D. Irrev. Irrev.
56b NHCOMe DtB Irrev. Irrev. N.D. Irrev. Irrev.
39b Alk Irrev. Irrev. N.D. Irrev. Rev.
57b Cl DtB Irrev. Irrev. N.D. Irrev. Rev.
41b H Alk Irrev. Irrev. Irrev. N.D. N.D.
31b Pro-Lys H Alk Irrev. Irrev. Irrev. Irrev. N.D. a Alk: ABP precursor bearing an alkyne; DtB: desthiobiotin probe b Panel of serine proteases abbreviations: urokinase plasminogen activator (uPA), cathepsin G (catG) N.D.: IC50 is greater than 10µM, and jump dilution was not performed
2.2.3 Progress curves and Jump dilution experiments
Kinetic assays were performed in the following manner. The inhibitor was mixed with the substrate, and the buffer solution with the enzyme was added at the time zero. The progress curves show the release of para-nitroaniline (pNA) or 7-amino-4-methyl coumarin (AMC) as a function of time.
To monitor the dissociation of the inhibitor-enzyme, aliquots of the enzyme were incubated at 37 °C without and with the inhibitor at a concentration 10 times higher than its IC 50. The enzyme […]
min, the aliquots were diluted 10-fold or 100-fold into the substrate concentration and assay buffer used for the IC50 determination. The dissociation of the enzyme-inhibitor complex was monitored by substrate hydrolysis over time. Blue lines represent the control where no inhibitor was present. Pink lines represent the assay with inhibitor.

Regarding `C#CCCCOC(=O)NC(c1ccc(NC(=N)N)cc1)P(=O)(Oc1ccccc1)Oc1ccccc1.O=C(O)C(F)(F)F` (stereo not shown) [37b, Pent-4-yn-1-yl ((diphenoxyphosphoryl)(4-guanidinophenyl)methyl)carbamate trifluoroacetate salt], in experiment [1], the Trypsin-3 kapp was 293 ± 34 M⁻¹ s⁻¹ and the “Trypsin-3 mechanism of inhibition” value is on record as “Irrev”. Moreover, in experiment [2], the “Trypsin-3 jump dilution result” value is “Irrev”.

`C[C@@H]1NC(=O)N[C@@H]1CCCCCC(=O)NCCOCCOCCOCCn1cc(CCCOC(=O)NC(Cc2ccc(NC(=N)N)cc2)P(=O)(Oc2ccc(Cl)cc2)Oc2ccc(Cl)cc2)nn1` (stereo partly shown) [54b]: the Ki came out at 6 ± 0.5 nM in experiment [1] (Trypsin-3 K1, apparent equilibrium constant of the first step of slow-binding) and 0.8 nM in experiment [1] (Trypsin-3 KI*, apparent equilibrium constant of the overall process). Besides, the “Trypsin-3 mechanism of inhibition” value in experiment [1] is “* ^d Rev”. In experiment [2], the “Trypsin-3 jump dilution result” value is “Rev”.

Take `C[C@@H]1NC(=O)N[C@@H]1CCCCCC(=O)NCCOCCOCCOCCn1cc(CCCOC(=O)NC(CCCNC(=N)N)P(=O)(Oc2ccc(Cl)cc2)Oc2ccc(Cl)cc2)nn1` (stereo partly shown) [46b]: in experiment [1], the Trypsin-3 kapp was 92 × 10^2 ± 349 M^−1 s^−1 and the “Trypsin-3 mechanism of inhibition” value is listed as “Irrev”. In experiment [2], the “Trypsin-3 jump dilution result” value is on record as “Irrev”.
